Source: US5563151A, “Amino acid derivatives as paf-receptor antagonists” (British Biotech Pharmaceuticals limited, priority 1992, dated 1996)

How the values were obtained:
[1] = target: T1, PAF receptor (human platelet plasma membrane) (Homo sapiens, UniProt P25105); test: Inhibition of [^3 H]-PAF Receptor Binding; conditions: human platelet plasma membranes; [^3 H]-PAF 0.5 nM; 0° C., 1 hour, pH 7.0
T1 construct: Platelet concentrates were obtained from a hospital blood bank; from tissue; host or cells: human platelets (hospital blood bank concentrates), lysed platelet membranes
T1 sequence (P25105 whole entry): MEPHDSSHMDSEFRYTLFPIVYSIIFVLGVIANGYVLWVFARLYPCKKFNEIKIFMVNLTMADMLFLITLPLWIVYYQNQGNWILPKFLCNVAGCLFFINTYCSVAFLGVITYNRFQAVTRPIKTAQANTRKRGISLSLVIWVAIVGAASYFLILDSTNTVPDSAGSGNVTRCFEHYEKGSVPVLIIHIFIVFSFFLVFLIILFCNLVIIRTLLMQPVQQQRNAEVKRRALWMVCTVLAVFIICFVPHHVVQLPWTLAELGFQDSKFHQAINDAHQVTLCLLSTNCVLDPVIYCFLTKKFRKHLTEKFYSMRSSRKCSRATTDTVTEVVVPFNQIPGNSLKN
Protocol: (§1) Compounds of general formula I inhibit PAF-induced functions in both the cellular and tissue levels by changing the PAF binding to its specific receptor site. The ability of compounds of general formula I to inhibit the binding of PAF to its specific receptor binding site on human platelet plasma membranes was measured according to Example 150. The ability of compounds of general formula I to reverse the hypotension caused by an infusion of PAF in rats was measured according Example 151.
Inhibition of [^3 H]-PAF Receptor Binding
The inhibition of [^3 H]-PAF binding to human platelet plasma membrane by compounds of general formula I was determined by isotopic labelling and filtration techniques. Platelet concentrates were obtained from a hospital blood bank. These platelet concentrates (500-2500 ml.) were centrifuged at 800 rpm for 10 minutes in a SORVALL RC3B centrifuge to remove the red blood cells present. (The word SORVALL is a trade mark.) The supernatant was subsequently centrifuged at 3,000 rpm in a SORVALL RC3B centrifuge to pellet the platelets present. The platelet rich pellets were resuspended in a minimum volume of buffer (150 mM NaCl, 10 mM Tris, 2 mM EDTA, pH 7.5) and layered onto Ficoll-Paque gradients, 9 ml platelet concentrate to 2 ml Ficoll, and centrifuged at 1,900 rpm for 15 minutes in a SORVALL RT6000 centrifuge. This step removes the residual red blood cells and other nonspecific material such as lymphocytes from the preparation. The platelets which form a band between the plasma and the Ficoll were removed, resuspended in the above buffer and centrifuged at 3,000 rpm for 10 minutes in a SORVALL RT6000 centrifuge. […]
The assay was conducted by preparing a series of Tris-buffered solutions of the selected antagonist of predetermined concentrations. […] Each washed residue was dried under vacuum on a sampling manifold and placed into vials containing 20 ml of OPTIPHASE MP scintillation fluid and the radioactivity counted in a liquid scintillation counter. […]

[2] = system: PAF-induced hypotension; test: Inhibition of PAF-Induced Hypotension in the Rat; type: in vivo, rat (male Sprague-Dawley); conditions: iv, i.v. bolus, PAF 100 ng/kg/min i.v. infusion, anaesthetised rats, read-out: ED50 (dose to cause a 50% reversal of the hypotensive PAF response)
Protocol: as §1
Inhibition of PAF-Induced Hypotension in the Rat
Male Sprague-Dawley rats (300-350 g) were anaesthetised with a mixture of sodium pentobarbitone, 22.5 mg/kg and thiopental 62.5 mg/kg. Through a midline incision in the neck, the trachea was cannulated and the animals breathed spontaneously. A carotid artery was cannulated for the measurement of blood pressure and this signal was used to trigger a rate meter to measure heart rate. Both jugular veins were cannulated: one for the infusion of PAF and the other for the bolus administration of test compounds.
PAF, 100 ng/kg/min was infused i.v. until a sustained fall in mean blood pressure of 50 mmHg was achieved. […] The peak of this reversal was measured and the dose to cause a 50% reversal of the hypotensive PAF response (ED50) calculated by straight line interpolation and the results are presented in Table 2.

## CCOC(=O)[C@H](CC(C)C)NC(=O)CCCCCn1c(C)nc2cnccc21 [Example 1B, N-6-(2-methylimidazo[4,5-c]pyridin-1-yl)hexanoyl-L-leucine ethyl ester]
[1]
  IC50: 15 nM

## CCOC(=O)[C@H](CC(C)C)NC(=O)CCCn1c(C)nc2cnccc21 [Example 11B, N-4-(2-methylimidazo[4,5-c]pyridin-1-yl)butanoyl-L-leucine ethyl ester]
[1]
  IC50: 3 nM
[2]
  ED50: 0.0305 mg/kg

## CCOC[C@H](CC(C)C)NS(=O)(=O)CCCn1c(C)nc2cnccc21 [Example 33B, N-4-(2-methylimidazo[4,5-c]pyridin-1-yl)propylsulphonyl-L-leucinyl ethyl ether]
[2]
  ED50: 0.0018 mg/kg

## CCOC(=O)[C@H](CC(C)C)NC(=O)CCCCCCCCCCn1c(C)nc2cnccc21 [Example 98B, N-11-(2-methylimidazo[4,5-c]pyridin-1-yl)undecanoyl-L-leucine ethyl ester]
[1]
  IC50: 1 nM
